Experimental data as given in ChEMBL document CHEMBL1154899, “Synthesis and biological evaluation of caffeic acid 3,4-dihydroxyphenethyl ester” (J Nat Prod, 2010).

What was measured:
Type in all cases: functional
[1] = tested on: UACC-257; assay: Antiproliferative activity against human UACC257 cells by SRB assay
[2] = tested on: NCI/ADR-RES; assay: Antiproliferative activity against human NCI/ADR-RES cells assessed as cell growth at 0.5 uM by SRB assay; settings: read-out: Activity
[3] = tested on: HOP-62; assay: Antiproliferative activity against human HOP62 cells assessed as cell growth at 5 uM by SRB assay; settings: read-out: Activity
[4] = tested on: K562; assay: Antiproliferative activity against human K562 cells by SRB assay
[5] = tested on: NCI-H460; assay: Antiproliferative activity against human NCI-H460 cells assessed as cell growth at 0.5 uM by SRB assay; settings: read-out: Activity
[6] = tested on: HL-60(TB); assay: Antiproliferative activity against human HL-60(TB) cells assessed as cell growth at 50 uM by SRB assay; settings: read-out: Activity
[7] = tested on: SK-MEL-28; assay: Antiproliferative activity against human SK-MEL-28 cells by SRB assay
[8] = tested on: TK-10; assay: Antiproliferative activity against human TK10 cells assessed as cell growth at 5 mM by SRB assay; settings: read-out: Activity
[9] = tested on: IGROV-1; assay: Antiproliferative activity against human IGROV1 cells by SRB assay
[10] = tested on: COLO 205; assay: Antiproliferative activity against human COLO205 cells assessed as cell growth at 500 uM by SRB assay; settings: read-out: Activity
[11] = tested on: Malme-3M; assay: Antiproliferative activity against human MALME-3M cells by SRB assay
[12] = tested on: 786-0; assay: Antiproliferative activity against human 786-0 cells assessed as cell growth at 50 uM by SRB assay; settings: read-out: Activity
[13] = tested on: NCI-H23; assay: Antiproliferative activity against human NCI-H23 cells assessed as cell growth at 0.5 uM by SRB assay; settings: read-out: Activity
[14] = tested on: OVCAR-3; assay: Antiproliferative activity against human OVCAR-3 cells assessed as cell growth at 50 uM by SRB assay; settings: read-out: Activity
[15] = read-out: LC50 (the source's name)
[16] = read-out: pLC50 (the source's name) (converted)

SMILES: O=C(/C=C/c1ccc(O)c(O)c1)OCCc1ccc(O)c(O)c1
- GI50 ([1]; read-out: GI50): 15.4 µM
- CC50 [1, 15]: > 50 µM
- TGI ([1]; read-out: TGI): > 50 µM
- GI50 ([1]; read-out: pGI50 (converted)): 15.5 µM
- CC50 [1, 16]: > 50.1 µM
- TGI ([1]; read-out: pTGI): > 50.1 µM
- growth at 0.5 µM [2]: 97%
- growth at 5 µM [3]: 89%
- GI50 ([4]; read-out: GI50): 1.56 µM
- CC50 [4, 15]: > 50 µM
- TGI ([4]; read-out: TGI): 19.9 µM
- GI50 ([4]; read-out: pGI50 (converted)): 1.55 µM
- CC50 [4, 16]: > 50.1 µM
- TGI ([4]; read-out: pTGI (converted)): 20 µM
- growth at 0.5 µM [5]: 95%
- growth at 50 µM [6]: 82%
- GI50 ([7]; read-out: GI50): 6.51 µM
- CC50 [7, 15]: > 50 µM
- TGI ([7]; read-out: TGI): > 50 µM
- GI50 ([7]; read-out: pGI50 (converted)): 6.46 µM
- CC50 [7, 16]: > 50.1 µM
- TGI ([7]; read-out: pTGI): > 50.1 µM
- growth at 5000 µM [8]: 40%
- GI50 ([9]; read-out: GI50): 2.86 µM
- CC50 [9, 15]: > 50 µM
- TGI ([9]; read-out: TGI): 24.4 µM
- GI50 ([9]; read-out: pGI50 (converted)): 2.88 µM
- CC50 [9, 16]: > 50.1 µM
- TGI ([9]; read-out: pTGI (converted)): 15.5 µM
- growth at 500 µM [10]: 84%
- GI50 ([11]; read-out: GI50): 18.6 µM
- CC50 [11, 15]: > 50 µM
- TGI ([11]; read-out: TGI): > 50 µM
- GI50 ([11]; read-out: pGI50 (converted)): 18.6 µM
- CC50 [11, 16]: > 50.1 µM
- TGI ([11]; read-out: pTGI): > 50.1 µM
- growth at 50 µM [12]: 94%
- growth at 0.5 µM [13]: 90%
- growth at 50 µM [14]: 90%
